Target: M. tuberculosis GroEL1 (Cpn60.1) (Mycobacterium tuberculosis, UniProt P9WPE9)
Sequence (P9WPE9 2-539 limits assumed): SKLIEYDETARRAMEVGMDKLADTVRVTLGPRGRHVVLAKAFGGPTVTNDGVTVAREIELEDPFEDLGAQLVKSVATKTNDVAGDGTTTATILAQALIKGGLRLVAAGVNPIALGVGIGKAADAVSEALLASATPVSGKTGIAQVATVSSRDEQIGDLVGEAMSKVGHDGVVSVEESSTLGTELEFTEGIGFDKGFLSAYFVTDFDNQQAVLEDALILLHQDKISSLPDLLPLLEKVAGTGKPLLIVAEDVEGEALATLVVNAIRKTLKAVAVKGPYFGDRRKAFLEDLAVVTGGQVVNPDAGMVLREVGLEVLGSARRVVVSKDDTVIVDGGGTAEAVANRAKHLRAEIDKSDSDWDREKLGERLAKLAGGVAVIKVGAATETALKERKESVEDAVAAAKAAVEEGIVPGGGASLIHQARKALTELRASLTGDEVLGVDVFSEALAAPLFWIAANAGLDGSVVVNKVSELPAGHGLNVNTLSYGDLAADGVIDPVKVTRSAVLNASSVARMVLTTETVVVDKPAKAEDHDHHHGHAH

## CCC(=O)SCCNC(=O)CCNC(=O)[C@H](O)C(C)(C)COP(=O)(O)OP(=O)(O)OC[C@H]1O[C@@H](n2cnc3c(N)ncnc32)[C@H](O)[C@@H]1OP(=O)(O)O [propionyl-CoA]
  auto-propionylation, anti-propionyllysine enrichment and MS/MS: Using propionyl-CoA as a substrate
